In ChEMBL document CHEMBL1133239, “Acid catalyzed Michael additions to artemisitene” (2000):

What was measured:
Plasmodium falciparum [1] = test: Relative antimalarial activity compared to artemisinin against Plasmodium falciparum D6; format: functional
Plasmodium falciparum [2] = test: Relative antimalarial activity compared to artemisinin against Plasmodium falciparum W-2; format: functional

| Compound | Relative activity (Plasmodium falciparum [1]) | Relative activity (Plasmodium falciparum [2]) |
| --- | --- | --- |
| C[C@@H]1CC[C@H]2[C@@H](CC3C=CC(=O)O3)C(=O)O[C@@H]3OC4(C)CC[C@@H]1[C@]32OO4 (single isomer, unassigned) | 0.058 | 0.03 |
| C=CCC[C@H]1C(=O)O[C@@H]2OC3(C)CC[C@H]4[C@H](C)CC[C@@H]1[C@@]24OO3 (single isomer, unassigned) | 2.3 | 2.9 |
| C[C@@H]1CC[C@H]2[C@H](CCC(=O)C(C)(C)C)C(=O)O[C@@H]3OC4(C)CC[C@@H]1[C@]32OO4 (single isomer, unassigned) | 4.5 | 0.74 |
| C[C@@H]1CC[C@H]2[C@H](CC#N)C(=O)O[C@@H]3OC4(C)CC[C@@H]1[C@]32OO4 (single isomer, unassigned) | 0.17 | 0.036 |
| C[C@@H]1CC[C@H]2[C@H](CC3C=CC(=O)O3)C(=O)O[C@@H]3OC4(C)CC[C@@H]1[C@]32OO4 (single isomer, unassigned) | 0.33 | 0.037 |
| C[C@@H]1CC[C@H]2[C@@H](CC#N)C(=O)O[C@@H]3O[C@@]4(C)CC[C@@H]1[C@]32OO4 | 0.17 | 0.036 |
| C[C@@H]1CC[C@H]2[C@@H](CCC(=O)C(C)(C)C)C(=O)O[C@@H]3OC4(C)CC[C@@H]1[C@]32OO4 (single isomer, unassigned) | 7.4 | 1.13 |
| C[C@@H]1CC[C@H]2[C@@H](CC/C(=C/C(=O)c3ccccc3)c3ccccc3)C(=O)O[C@@H]3OC4(C)CC[C@@H]1[C@]32OO4 (single isomer, unassigned) | 6.2 | 0.55 |
| C[C@@H]1CC[C@H]2[C@@H](CC3CCCC3=O)C(=O)O[C@@H]3OC4(C)CC[C@@H]1[C@]32OO4 (single isomer, unassigned) | 0.47 | 0.29 |
